Test results published in the NIST ThermoML archive (doi:10.1016/j.fluid.2007.06.007).

Assay: excess molar enthalpy (molar enthalpy of mixing); xn = mol fraction of the nth substance listed
Details: 101 kPa, Liquid, Calvet calorimetry

CCCCn1cc[n+](C)c1.F[P-](F)(F)(F)(F)F [1-butyl-3-methylimidazolium hexafluorophosphate] + CCO
Details	excess molar enthalpy [kcal/mol]
288.15 K, x2 = 0.001144	0.00208
288.15 K, x2 = 0.002285	0.00415
288.15 K, x2 = 0.003423	0.00629
288.15 K, x2 = 0.004559	0.00822
288.15 K, x2 = 0.005692	0.0104
288.15 K, x2 = 0.006823	0.0126
288.15 K, x2 = 0.007951	0.0147
288.15 K, x2 = 0.009076	0.0168
298.15 K, x2 = 0.001112	0.00206
298.15 K, x2 = 0.002231	0.00395
298.15 K, x2 = 0.003346	0.00578
298.15 K, x2 = 0.004465	0.00775
298.15 K, x2 = 0.005584	0.00937
298.15 K, x2 = 0.006698	0.0112
298.15 K, x2 = 0.007812	0.0132
298.15 K, x2 = 0.008925	0.015
308.15 K, x2 = 0.00114	0.00243
308.15 K, x2 = 0.002261	0.00429
308.15 K, x2 = 0.00339	0.00632
308.15 K, x2 = 0.004524	0.00838
308.15 K, x2 = 0.005658	0.0101
308.15 K, x2 = 0.006787	0.0119
308.15 K, x2 = 0.007915	0.0139
308.15 K, x2 = 0.009044	0.0158
318.15 K, x2 = 0.001144	0.00253
318.15 K, x2 = 0.002294	0.00499
318.15 K, x2 = 0.00344	0.00687
318.15 K, x2 = 0.004591	0.00876
318.15 K, x2 = 0.005741	0.011
318.15 K, x2 = 0.006886	0.0133
318.15 K, x2 = 0.008031	0.0153
318.15 K, x2 = 0.009176	0.0174

CCCCCCC [heptane] + CCO
298.15 K
Details	excess molar enthalpy [kcal/mol]
x1 = 0.00013	0.0001
x1 = 0.000261	0.000201
x1 = 0.000392	0.000304
x1 = 0.000524	0.000402
x1 = 0.000655	0.00049
x1 = 0.000787	0.000588
x1 = 0.000919	0.000679
x1 = 0.001051	0.000767
x1 = 0.001183	0.000865
x1 = 0.001314	0.000954
x1 = 0.001445	0.00105
x1 = 0.001577	0.00114
x2 = 0.000794	0.00457
x2 = 0.001594	0.0088
x2 = 0.002391	0.0129
x2 = 0.003191	0.0168
x2 = 0.003992	0.0205
x2 = 0.00479	0.0239
x2 = 0.005589	0.027
x2 = 0.006387	0.0299
x2 = 0.007185	0.0325
x2 = 0.007976	0.0349
x2 = 0.008768	0.0371
x2 = 0.009558	0.0391

CCO [ethanol] + O
298.15 K
Details	excess molar enthalpy [kcal/mol]
x1 = 0.000102	-0.000249
x1 = 0.000206	-0.000497
x1 = 0.000308	-0.000746
x1 = 0.000412	-0.000992
x1 = 0.000516	-0.00124
x1 = 0.000619	-0.00148
x1 = 0.000723	-0.00173
x1 = 0.000827	-0.00197
x1 = 0.000931	-0.00222
x1 = 0.001034	-0.00246
x1 = 0.001138	-0.00271
x1 = 0.001241	-0.00295
x1 = 0.001345	-0.00319
x1 = 0.001448	-0.00343
x1 = 0.001551	-0.00367
x2 = 0.001021	-0.000507
x2 = 0.00205	-0.00101
x2 = 0.003074	-0.00151
x2 = 0.004102	-0.002
x2 = 0.00513	-0.00248
x2 = 0.006155	-0.00296
x2 = 0.007179	-0.00343
x2 = 0.008203	-0.0039
x2 = 0.009225	-0.00437
x2 = 0.01024	-0.00484
x2 = 0.01125	-0.00529
x2 = 0.01226	-0.00575
x2 = 0.01328	-0.00619
x2 = 0.01428	-0.00664
x2 = 0.01529	-0.00708
